Where a name gives a salt, the structure may show the parent alone. Blank lines part the entries; values can stand above or below the molecule they belong to.
What was measured:
P. berghei = assay: antimalarial activity, standard in vivo test procedure against P. berghei in Swiss mice (ED50 on day 4 of treatment); settings: for ED50 Day 4 (mean values): effective dose which decreases the cell parasitemia by 50 percent on day 4 of treatment: Swiss mice infected i.p. with P. berghei, oral intubation in 0.2% methyl cellulose, 1, 4, 16 mg/kg/day × 4 days, 4 mice per group, 5760 min
Description: The antimalarial activity of 1-[1,3-dichloro-6-trifluoromethyl-9-phenanthryl]-3-di(n-butyl)aminopropanol quinate (Compound A) was established utilizing the following methodology. Test animals were infected by interperitoneal injection of 9×10^6 parasitized cells of P. berghei contained in 0.25 ml of 1:40 dilution in 0.9% aqueous sodium chloride with potassium citrate added of donor mouse blood which was infected with P. berghei one week earlier. Three days after injection, 3 groups of 4 mice (2 males and 2 females) were treated with Compound A at a dose level of 1, 4 and 16 mg/kg/day for 4 consecutive days. Similarly, a positive control of 3 groups of 4 mice (2 males and 2 females) were treated with halofantrine, as the hydrochloride salt, at a dose level of 1, 4 and 16 mg/kg/day for 4 consecutive days. The route of administration of Compound A and halofantrine was oral intubation of a suspension of each compound in 0.2% methyl cellulose at a constant volume of […]. A negative control group of 4 mice (2 males and 2 females) remained untreated. The results of the above test procedure expressed as an ED50 (the effective dose which decrease the cell parasitemia by 50 percent on day 4 of treatment) are shown below in Table I.

water solubility = assay type: physicochemical; settings: weight to weight basis
[1] = system: Cambodian Buchanan strain of P. falciparum; settings: administered over a short period of time, minimum of two doses; cited from earlier work
[2] = in vivo; cited from earlier work
[3] = system: Chesson strain of P. vivax; settings: administered over a short period of time, minimum of two doses; cited from earlier work
[4] = system: multi-drug resistant Vietnam Smith strain of P. falciparum; settings: administered over a short period of time, minimum of two doses; cited from earlier work

solubility (water solubility): ≤ 200 mg/mL
Compound: CCCCN(CCCC)CCC(O)c1cc2c(Cl)cc(Cl)cc2c2cc(C(F)(F)F)ccc12 (centres unmarked) [Compound A, 1-[1,3-dichloro-6-trifluoromethyl-9-phenanthryl]-3-di(n-butyl)aminopropanol quinate]
times more effective, on a weight by weight basis, than halofantrine hydrochloride (ED50 on day 4) (P. berghei; P. berghei malaria in mice, compared to halofantrine hydrochloride): at least 6 times
ED50 Day 4 (mean values): effective dose which decreases the cell parasitemia by 50 percent on day 4 of treatment (P. berghei): ≤ 1 mg/kg

Compound: CCCCN(CCCC)CCC(O)c1cc2c(Cl)cc(Cl)cc2c2cc(C(F)(F)F)ccc12 (centres unmarked) [Halofantrine (HCl), 1-[1,3-dichloro-6-trifluoromethyl-9-phenanthryl]-3-di-(n-butyl)-aminopropanol hydrochloride]
ED50 Day 4 (mean values): effective dose which decreases the cell parasitemia by 50 percent on day 4 of treatment (P. berghei; hydrochloride): 6 mg/kg
effectiveness against Cambodian Buchanan strain [1]: effective
systemic bioavailability [2]: problems with systemic bioavailability remained
effectiveness against Chesson strain of P. vivax [3]: effective
effectiveness against Vietnam Smith strain [4]: effective

Reference: patent US4818767A, “Quinate salts of antimalarial phenanthrenemethanol compounds” (SmithKline Beckman Corporation, priority 1983, dated 1989)
